# Measurements published in patent US20220389061A1, “IMMUNOMODULATORS” (priority 2019, published 2022).
# Starred links: 1 amine or outer side, 2 acyl side, 3 side chain; linkers in the order of their positions; H or OH if unused. Positions of bridges follow the written chain, without caps; N, C: chain ends. Non-standard residues stand in square brackets, D forms with d. Residues, ends and D or L forms follow the SMILES beside them. Groups on a side chain read outwards from the residue. *: point of attachment. Trp(1-CH2CO2Me) = COC(=O)Cn1cc(C[C@H](N)C(=O)O)c2ccccc21; Trp(1-CH2COOH) = N[C@@H](Cc1cn(CC(=O)O)c2ccccc12)C(=O)O; NH(benzothiophen-5-yl) = c1cc2cc(N*)ccc2s1; X8 = NC(=O)c1c[nH]c2c(NC(=S)*)cccc12; X68 = CC1(C)CCC(C)(C)c2cc(N*)ccc21; Pyrazinecarbonyl = O=C(c1cnccn1)*; Hyp = O=C(O)[C@@H]1C[C@@H](O)CN1; pNA = O=[N+]([O-])c1ccc(N*)cc1; X29 = c1ccc(Oc2ccc(N*)cc2)cc1; X55 = COc1cc(NC(=S)*)cc(OC)c1; NMeNle = CCCC[C@H](NC)C(=O)O; X5 = S=C(Nc1cccc2ccccc12)*; X59 = S=C(Nc1ccc2nsnc2c1)*; X74 = Cc1cc(C)c(N*)c(C)c1; NMeA = CN[C@@H](C)C(=O)O; Dab = NCC[C@H](N)C(=O)O; X39 = CCCCOc1ccc(N*)cc1; Dap = NC[C@H](N)C(=O)O; X77 = Clc1cccc(N*)c1Cl; CO = O=C([*:1])[*:2]
# Biological target: T1, PD-1/PD-L1 (Homo sapiens, UniProt Q9NZQ7)
# T1 construct: TVMV protease site linker (C); made in house; host or cells: HEK293T cells
# T1 sequence (Q9NZQ7 18-239): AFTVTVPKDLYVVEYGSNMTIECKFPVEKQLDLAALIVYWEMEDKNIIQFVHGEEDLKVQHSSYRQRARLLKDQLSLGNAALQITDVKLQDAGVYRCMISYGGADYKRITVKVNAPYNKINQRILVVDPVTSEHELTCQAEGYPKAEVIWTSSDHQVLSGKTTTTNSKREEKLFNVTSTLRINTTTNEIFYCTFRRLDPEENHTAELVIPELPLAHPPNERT
# Assay: PD-1/PD-L1 Homogenous Time-Resolved Fluorescence (HTRF) binding assay
# Settings: not given
# Procedure, shortened: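 HTRF read-out using europium cryptate anti-Ig (1 nM) and APC anti-His (20 nM) on extracellular-domain fusion proteins in dPBS/0.1% BSA/0.05% Tween-20. Inhibitor first incubated 15 min with 10 nM PD-L1-His, followed by 20 nM PD-1-Ig for another 15 min.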
row,SMILES,IC50 [nM]
1,CCCC[C@H]1C(=O)N(C)[C@@H](CCCC)C(=O)N[C@@H](CC(C)C)C(=O)N[C@H](C(=O)NCC(N)=O)CSCC(=O)N[C@@H](Cc2ccc(O)cc2)C(=O)N(C)[C@@H](C)C(=O)N[C@@H](CC(N)=O)C(=O)N2CCC[C@H]2C(=O)N[C@@H](CNC(=O)Nc2cccc(Cl)c2Cl)C(=O)N[C@@H](CC(C)C)C(=O)N2C[C@H](O)C[C@H]2C(=O)N[C@@H](Cc2c[nH]c3ccccc23)C(=O)N[C@@H](CCNC(=O)Nc2cccc(Cl)c2Cl)C(=O)N[C@@H](Cc2cn(CC(=O)O)c3ccccc23)C(=O)N1C [Example 1084] ({CH2CO}-Y[NMeA]NP[Dap]([CO-X77])L[Hyp]W[Dab]([CO-X77])[Trp(1-CH2COOH)][NMeNle][NMeNle]LCG-NH2; thioether N-14),2.6
2,CCCC[C@H]1C(=O)N(C)[C@@H](CCCC)C(=O)N[C@@H](CC(C)C)C(=O)N[C@H](C(=O)NCC(N)=O)CSCC(=O)N[C@@H](Cc2ccc(O)cc2)C(=O)N(C)[C@@H](C)C(=O)N[C@@H](CC(N)=O)C(=O)N2CCC[C@H]2C(=O)N[C@@H](CN)C(=O)N[C@@H](CC(C)C)C(=O)N2C[C@H](O)C[C@H]2C(=O)N[C@@H](Cc2c[nH]c3ccccc23)C(=O)N[C@@H](CCNC(=O)Nc2ccc([N+](=O)[O-])cc2)C(=O)N[C@@H](Cc2cn(CC(=O)O)c3ccccc23)C(=O)N1C [Example 1131] ({CH2CO}-Y[NMeA]NP[Dap]L[Hyp]W[Dab]([CO-pNA])[Trp(1-CH2COOH)][NMeNle][NMeNle]LCG-NH2; thioether N-14),7.3

# Same assay, conditions: PD-L1-His 10 nM pre-incubated with inhibitor, PD-1-Ig 20 nM; read-out: HTRF IC50
row,IC50 [nM],SMILES
1,1.6,CCCC[C@H]1C(=O)N(C)[C@@H](CCCC)C(=O)N[C@@H](CC(C)C)C(=O)N[C@H](C(=O)NCC(N)=O)CSCC(=O)N[C@@H](Cc2ccc(O)cc2)C(=O)N(C)[C@@H](C)C(=O)N[C@@H](CC(N)=O)C(=O)N2CCC[C@H]2C(=O)N[C@@H](CNC(=S)Nc2cccc3c(C(N)=O)c[nH]c23)C(=O)N[C@@H](CC(C)C)C(=O)N2C[C@H](O)C[C@H]2C(=O)N[C@@H](Cc2c[nH]c3ccccc23)C(=O)N[C@@H](CCNC(=S)Nc2cccc3c(C(N)=O)c[nH]c23)C(=O)N[C@@H](Cc2cn(CC(=O)O)c3ccccc23)C(=O)N1C [Example 3023] ({CH2CO}-Y[NMeA]NP[Dap](X8)L[Hyp]W[Dab](X8)[Trp(1-CH2COOH)][NMeNle][NMeNle]LCG-NH2; thioether N-14)
2,3.5,CCCC[C@H]1C(=O)N(C)[C@@H](CCCC)C(=O)N[C@@H](CC(C)C)C(=O)N[C@H](C(=O)NCC(N)=O)CSCC(=O)N[C@@H](Cc2ccc(O)cc2)C(=O)N(C)[C@@H](C)C(=O)N[C@@H](CC(N)=O)C(=O)N2CCC[C@H]2C(=O)N[C@@H](CNC(=O)c2cnccn2)C(=O)N[C@@H](CC(C)C)C(=O)N2C[C@H](O)C[C@H]2C(=O)N[C@@H](Cc2c[nH]c3ccccc23)C(=O)N[C@@H](CCNC(=O)c2cnccn2)C(=O)N[C@@H](Cc2cn(CC(=O)OC)c3ccccc23)C(=O)N1C [Example 1002] ({CH2CO}-Y[NMeA]NP[Dap](Pyrazinecarbonyl)L[Hyp]W[Dab](Pyrazinecarbonyl)[Trp(1-CH2CO2Me)][NMeNle][NMeNle]LCG-NH2; thioether N-14)
3,3.4,CCCCOc1ccc(NC(=O)NCC[C@@H]2NC(=O)[C@H](Cc3c[nH]c4ccccc34)NC(=O)[C@@H]3C[C@@H](O)CN3C(=O)[C@H](CC(C)C)NC(=O)[C@H](CN)NC(=O)[C@@H]3CCCN3C(=O)[C@H](CC(N)=O)NC(=O)[C@H](C)N(C)C(=O)[C@H](Cc3ccc(O)cc3)NC(=O)CSC[C@@H](C(=O)NCC(N)=O)NC(=O)[C@H](CC(C)C)NC(=O)[C@H](CCCC)N(C)C(=O)[C@H](CCCC)N(C)C(=O)[C@H](Cc3cn(CC(=O)O)c4ccccc34)NC2=O)cc1 [Example 1119] ({CH2CO}-Y[NMeA]NP[Dap]L[Hyp]W[Dab]([CO-X39])[Trp(1-CH2COOH)][NMeNle][NMeNle]LCG-NH2; thioether N-14)
4,1.5,CCCC[C@H]1C(=O)N(C)[C@@H](CCCC)C(=O)N[C@@H](CC(C)C)C(=O)N[C@H](C(=O)NCC(N)=O)CSCC(=O)N[C@@H](Cc2ccc(O)cc2)C(=O)N(C)[C@@H](C)C(=O)N[C@@H](CC(N)=O)C(=O)N2CCC[C@H]2C(=O)N[C@@H](CNC(=S)Nc2cccc3ccccc23)C(=O)N[C@@H](CC(C)C)C(=O)N2C[C@H](O)C[C@H]2C(=O)N[C@@H](Cc2c[nH]c3ccccc23)C(=O)N[C@@H](CCNC(=S)Nc2cccc3ccccc23)C(=O)N[C@@H](Cc2cn(CC(=O)O)c3ccccc23)C(=O)N1C [Example 3033] ({CH2CO}-Y[NMeA]NP[Dap](X5)L[Hyp]W[Dab](X5)[Trp(1-CH2COOH)][NMeNle][NMeNle]LCG-NH2; thioether N-14)
5,3.3,CCCC[C@H]1C(=O)N(C)[C@@H](CCCC)C(=O)N[C@@H](CC(C)C)C(=O)N[C@H](C(=O)NCC(N)=O)CSCC(=O)N[C@@H](Cc2ccc(O)cc2)C(=O)N(C)[C@@H](C)C(=O)N[C@@H](CC(N)=O)C(=O)N2CCC[C@H]2C(=O)N[C@@H](CNC(=O)Nc2ccc3c(c2)C(C)(C)CCC3(C)C)C(=O)N[C@@H](CC(C)C)C(=O)N2C[C@H](O)C[C@H]2C(=O)N[C@@H](Cc2c[nH]c3ccccc23)C(=O)N[C@@H](CCN)C(=O)N[C@@H](Cc2cn(CC(=O)O)c3ccccc23)C(=O)N1C [Example 3046] ({CH2CO}-Y[NMeA]NP[Dap]([CO-X68])L[Hyp]W[Dab][Trp(1-CH2COOH)][NMeNle][NMeNle]LCG-NH2; thioether N-14)
6,3,CCCC[C@H]1C(=O)N(C)[C@@H](CCCC)C(=O)N[C@@H](CC(C)C)C(=O)N[C@H](C(=O)NCC(N)=O)CSCC(=O)N[C@@H](Cc2ccc(O)cc2)C(=O)N(C)[C@@H](C)C(=O)N[C@@H](CC(N)=O)C(=O)N2CCC[C@H]2C(=O)N[C@@H](CNC(=S)Nc2ccc3nsnc3c2)C(=O)N[C@@H](CC(C)C)C(=O)N2C[C@H](O)C[C@H]2C(=O)N[C@@H](Cc2c[nH]c3ccccc23)C(=O)N[C@@H](CCN)C(=O)N[C@@H](Cc2cn(CC(=O)O)c3ccccc23)C(=O)N1C [Example 3030] ({CH2CO}-Y[NMeA]NP[Dap](X59)L[Hyp]W[Dab][Trp(1-CH2COOH)][NMeNle][NMeNle]LCG-NH2; thioether N-14)
7,3.6,CCCC[C@H]1C(=O)N(C)[C@@H](CCCC)C(=O)N[C@@H](CC(C)C)C(=O)N[C@H](C(=O)NCC(N)=O)CSCC(=O)N[C@@H](Cc2ccc(O)cc2)C(=O)N(C)[C@@H](C)C(=O)N[C@@H](CC(N)=O)C(=O)N2CCC[C@H]2C(=O)N[C@@H](CNC(=S)Nc2cccc3c(C(N)=O)c[nH]c23)C(=O)N[C@@H](CC(C)C)C(=O)N2C[C@H](O)C[C@H]2C(=O)N[C@@H](Cc2c[nH]c3ccccc23)C(=O)N[C@@H](CCN)C(=O)N[C@@H](Cc2cn(CC(=O)O)c3ccccc23)C(=O)N1C [Example 3017] ({CH2CO}-Y[NMeA]NP[Dap](X8)L[Hyp]W[Dab][Trp(1-CH2COOH)][NMeNle][NMeNle]LCG-NH2; thioether N-14)
8,3.1,CCCC[C@H]1C(=O)N(C)[C@@H](CCCC)C(=O)N[C@@H](CC(C)C)C(=O)N[C@H](C(=O)NCC(N)=O)CSCC(=O)N[C@@H](Cc2ccc(O)cc2)C(=O)N(C)[C@@H](C)C(=O)N[C@@H](CC(N)=O)C(=O)N2CCC[C@H]2C(=O)N[C@@H](CNC(=S)Nc2cc(OC)cc(OC)c2)C(=O)N[C@@H](CC(C)C)C(=O)N2C[C@H](O)C[C@H]2C(=O)N[C@@H](Cc2c[nH]c3ccccc23)C(=O)N[C@@H](CCN)C(=O)N[C@@H](Cc2cn(CC(=O)O)c3ccccc23)C(=O)N1C [Example 1098] ({CH2CO}-Y[NMeA]NP[Dap](X55)L[Hyp]W[Dab][Trp(1-CH2COOH)][NMeNle][NMeNle]LCG-NH2; thioether N-14)
9,2.3,CCCC[C@H]1C(=O)N(C)[C@@H](CCCC)C(=O)N[C@@H](CC(C)C)C(=O)N[C@H](C(=O)NCC(N)=O)CSCC(=O)N[C@@H](Cc2ccc(O)cc2)C(=O)N(C)[C@@H](C)C(=O)N[C@@H](CC(N)=O)C(=O)N2CCC[C@H]2C(=O)N[C@@H](CNC(=O)Nc2ccc3sccc3c2)C(=O)N[C@@H](CC(C)C)C(=O)N2C[C@H](O)C[C@H]2C(=O)N[C@@H](Cc2c[nH]c3ccccc23)C(=O)N[C@@H](CCNC(=O)Nc2ccc3sccc3c2)C(=O)N[C@@H](Cc2cn(CC(=O)O)c3ccccc23)C(=O)N1C [Example 3003] ({CH2CO}-Y[NMeA]NP[Dap]([CO-NH(benzothiophen-5-yl)])L[Hyp]W[Dab]([CO-NH(benzothiophen-5-yl)])[Trp(1-CH2COOH)][NMeNle][NMeNle]LCG-NH2; thioether N-14)

row,SMILES,IC50 [nM]
1,CCCC[C@H]1C(=O)N(C)[C@@H](CCCC)C(=O)N[C@@H](CC(C)C)C(=O)N[C@H](C(=O)NCC(N)=O)CSCC(=O)N[C@@H](Cc2ccc(O)cc2)C(=O)N(C)[C@@H](C)C(=O)N[C@@H](CC(N)=O)C(=O)N2CCC[C@H]2C(=O)N[C@@H](CNC(=O)Nc2ccc(Oc3ccccc3)cc2)C(=O)N[C@@H](CC(C)C)C(=O)N2C[C@H](O)C[C@H]2C(=O)N[C@@H](Cc2c[nH]c3ccccc23)C(=O)N[C@@H](CCN)C(=O)N[C@@H](Cc2cn(CC(=O)O)c3ccccc23)C(=O)N1C [Example 1070] ({CH2CO}-Y[NMeA]NP[Dap]([CO-X29])L[Hyp]W[Dab][Trp(1-CH2COOH)][NMeNle][NMeNle]LCG-NH2; thioether N-14),5.5
2,CCCC[C@H]1C(=O)N(C)[C@@H](CCCC)C(=O)N[C@@H](CC(C)C)C(=O)N[C@H](C(=O)NCC(N)=O)CSCC(=O)N[C@@H](Cc2ccc(O)cc2)C(=O)N(C)[C@@H](C)C(=O)N[C@@H](CC(N)=O)C(=O)N2CCC[C@H]2C(=O)N[C@@H](CNC(=O)Nc2c(C)cc(C)cc2C)C(=O)N[C@@H](CC(C)C)C(=O)N2C[C@H](O)C[C@H]2C(=O)N[C@@H](Cc2c[nH]c3ccccc23)C(=O)N[C@@H](CCN)C(=O)N[C@@H](Cc2cn(CC(=O)O)c3ccccc23)C(=O)N1C [Example 1066] ({CH2CO}-Y[NMeA]NP[Dap]([CO-X74])L[Hyp]W[Dab][Trp(1-CH2COOH)][NMeNle][NMeNle]LCG-NH2; thioether N-14),2.9
